“And” between values parts separate entries of the source, which are not always exact repeats. Equal entries are not always repeated.

The data set can be described thus: solvent given as SMILES.
Where [1] appears, read: in O=P(c1ccccc1)(c1ccccc1)c1ccccc1Oc1ccccc1P(=O)(c1ccccc1)c1ccccc1.

Molecule `CCOc1ccc(/C=C/C=C/C=C/c2ccc([N+](=O)[O-])cc2)cc1` displayed a fluorescence lifetime (in Cc1ccccc1) of 1.5 ns.
For `CC(C)(C)c1ccc2c(c1)c1cc(C(C)(C)C)ccc1n2-c1ccc(C#Cc2ccc(C=C(C#N)C#N)cc2)cc1`, the fluorescence lifetime (in ClCCl) turned out to be 4.2 ns.
Regarding `COc1ccc(-c2nc3c(ccc4ccccc43)oc2=O)cc1`, the fluorescence lifetime (in c1ccccc1) is 2.1 ns.
`COc1cc(C(=O)c2c(C)c3ccc4cccc5c6cccc7ccc2c(c76)c3c45)cc(OC)c1OC`: where the note is “in ClCCl”, the fluorescence lifetime came to 1.35 ns.
As for `Cc1cc(C)c(C2=C3C=CC=[N+]3[B-]3(F)Oc4cc(O)cc5c6ccc(C)cc6c6cc2n3c6c45)c(C)c1` (stereo not given), where the note is “in ClC(Cl)Cl”, the fluorescence lifetime came to 4 ns.
As for `CCCCCCC(CCCCCC)N1C(=O)c2cccc3c(-c4ccc(C#N)cc4)ccc(c23)C1=O`, the fluorescence lifetime reads like this: (in CCCCCC) 1.02 ns; (in CCCCCCCCCCCCCC) 0.994 ns; (in CCCCCCCCCCCO) 2.12 ns; (in CCCCO) 2.21 ns; (in CN(C)C=O) 2.15 ns; (in Cc1ccccc1) 1.16 ns. This molecule also yielded a fluorescence lifetime (in ClC(Cl)Cl) of 1.34 ns.
In the case of `COC(=O)C12N=N[C@](C(=O)OC)(C3C4CCC(C4)C31)C1[C@@H]3CC[C@@H](C3)[C@H]12` (stereo not given in full), the fluorescence lifetime (in CC#N) worked out at 273 ns.
In turn, `Cc1csc2[n+]1[B-](F)(F)n1c(c3cccc4cccc1c43)=N2` had a fluorescence lifetime (in ClCCl) of 6.5 ns.
In turn, `CCOc1ccc2c(-c3nc(-c4ccccc4)no3)cc(=O)oc2c1` had a fluorescence lifetime (in CCO) of 6.7 ns.
For the molecule `c1ccc(-c2nnc(-c3ccc(N4c5ccccc5Oc5ccccc54)cc3)o2)cc1`, the fluorescence lifetime runs as follows: (in Cc1ccccc1) 11 ns; (in c1ccc(-n2c(-c3c(-n4c5ccccc5c5ccccc54)cccc3-n3c4ccccc4c4ccccc43)nc3ccccc32)cc1) 4.9 ns.
Consider `O=C(c1ccc(-n2c3ccccc3c3ccccc32)cc1)c1ccc(-n2c3ccccc3c3ccccc32)cc1`, for which the fluorescence lifetime under setting [1] worked out at 59 ns.
Take `Cc1cc(-c2ccc(-n3c4ccccc4c4ccccc43)cc2)nc(-c2ccc(-n3c4ccccc4c4ccccc43)cc2)n1`: the fluorescence lifetime (in C1CCOC1) turned out to be 4.26 ns, the fluorescence lifetime (in CN(C)C=O) was 7.57 ns, the fluorescence lifetime (in Cc1ccccc1) was 2.44 ns and the fluorescence lifetime (in ClC(Cl)Cl) was found to be 4.11 ns.
Regarding `CC(C)(C)c1ccc2c(c1)c1cc(C(C)(C)C)ccc1n2-c1ccc(-n2c3ccc(C(C)(C)C)cc3c3cc(C(C)(C)C)ccc32)c(-c2nccnc2C#N)c1`, the fluorescence lifetime (in c1cc(-n2c3ccccc3c3ccccc32)cc(-n2c3ccccc3c3ccccc32)c1) was found to be 7.2 ns.
As for `CN(C)c1ccc(/C=C/C=C/C=C/c2ccc(B(O)O)cc2)cc1`, the fluorescence lifetime (in C1CCCCC1) came to 0.75 ns.
Consider `CC1=CC(c2ccc3ccccc3c2)=[O+][B-]2(OC(=O)C(=O)O2)O1`, for which the fluorescence lifetime came out at 18.8 ns (in CC#N) and 5.1 ns (in ClC(Cl)(Cl)Cl).
In the case of `C(=C\c1ccc(N(c2ccccc2)c2ccccc2)cc1)/c1ccccc1`, the fluorescence lifetime runs as follows: (in CC#N) 1.37 ns; (in CCCCCC) 0.51 ns.
Consider `[O-]c1c(-c2nc3ccccc3s2)cc2ccc3cccc4ccc1c2c34`, for which the fluorescence lifetime is 3.81 ns (in CC#N) and 4.7 ns (in CS(C)=O).
With `CCN(CC)c1ccc2cc(/C(Cl)=C/C=C/C(=C(C#N)C#N)c3ccc(N(c4ccccc4)c4ccccc4)cc3)c(=O)oc2c1`, the fluorescence lifetime reads like this: (in CC(C)=O) 1.51 ns; (in CCOC(C)=O) 2.42 ns; (in CN(C)C=O) 0.21 ns; (in CS(C)=O) 0.18 ns; (in Cc1ccccc1) 1.95 ns; (in ClCCl) 1.56 ns.
For the molecule `FC(F)(F)c1ccc(-c2nnc(-c3cc(-n4c5ccccc5c5ccccc54)c(-n4c5ccccc5c5ccccc54)cc3-c3nnc(-c4ccc(C(F)(F)F)cc4)o3)o2)cc1`, under “in Cc1ccccc1”, the fluorescence lifetime amounted to 19.1 ns.
Take `Cc1ccc(-[c+]2c3ccccc3sc3ccccc32)cc1`: the fluorescence lifetime (in CC#N) stood at 1 ns.
As for `[O-][n+]1c(-c2ccccc2)cc(N2CCOCC2)nc1/C=C/c1ccccc1`, the fluorescence lifetime (in ClCCl) came to 4.76 ns.
As to `COc1ccc2c(c1)c1cc(OC)ccc1n2-c1ccc2c(c1)-c1cc(-n3c4ccc(OC)cc4c4cc(OC)ccc43)ccc1P2(=O)c1ccccc1`, under “in c1ccc2c(c1)c1ccccc1n2-c1ccc(-c2ccc(-n3c4ccccc4c4ccccc43)cc2)cc1”, the fluorescence lifetime is 16.7 ns.
`CC(C)(C)c1ccc(-c2nnc(-c3c(-n4c5ccccc5c5ccccc54)c(-n4c5ccccc5c5ccccc54)c(-c4nnc(-c5ccc(C(C)(C)C)cc5)o4)c(-n4c5ccccc5c5ccccc54)c3-n3c4ccccc4c4ccccc43)o2)cc1` displayed a fluorescence lifetime (in Cc1ccccc1) of 12.7 ns.
Under “in ClCCl”, `F[B-]1(F)OC(C#Cc2ccccc2)=CC(c2ccccc2)=[O+]1` gave a fluorescence lifetime of 0.94 ns.
On to `COc1c2ccccc2c(OC)c2c1c1cccc(OC)c1n2C`, for which the fluorescence lifetime by setting is: (in C1CCCCC1) 21.8 ns; (in CC#N) 26.7 ns; (in CO) 25.2 ns; (in ClCCl) 22 ns.
Turning to `CC1(C)c2ccccc2-c2cc3c4ccccc4n(-c4ccc(-c5nc(-c6ccccc6)nc(-c6ccccc6)n5)cc4)c3cc21`, the fluorescence lifetime under setting [1] was 9.3 ns.
The molecule `F[B-]1(F)n2c(c3cccc4cccc2c43)=Nc2cccc[n+]21` displayed a fluorescence lifetime (in ClCCl) of 7.1 ns.
Turning to `CC1=[O+][B-]2(OC(=O)C(=O)O2)OC(c2c3ccccc3cc3ccccc23)=C1`, the fluorescence lifetime is 2.1 ns (in CC#N) and 1.2 ns (in ClC(Cl)(Cl)Cl).
For the setting “in ClCCl”, `OCCSc1cccc2[n+]1[B-](F)(F)n1c(c3cccc4cccc1c43)=N2` came in with a fluorescence lifetime of 7.3 ns.
Regarding `O=C(O)c1ccc(-c2nc(-c3ccccc3)c3ccccn23)cc1`, the fluorescence lifetime (in CC#N) came out at 1.5 ns.
Molecule `Nc1ccccc1/C=C/C(F)(F)F` had a fluorescence lifetime (in C1CCOC1) of 7.32 ns.
Consider `COc1ccc(-c2nc3ccccc3nc2/C=C/N2CCCC2)s1`, for which the fluorescence lifetime runs as follows: (in C1CCCCC1) 0.79 ns; (in C1CCOC1) 2.79 ns; (in CC#N) 5.78 ns; (in CC(C)=O) 5.1 ns; (in CCO) 0.67 ns; (in CO) 0.22 ns. Besides, the fluorescence lifetime is, setting by setting: (in CS(C)=O) 4.88 ns; (in Cc1ccccc1) 1.25 ns; (in ClCCl) 3.28 ns.
With `Nc1ccc2c(C(F)(F)F)cc(=O)oc2c1`, the fluorescence lifetime by setting is: (in C1CCC2CCCCC2C1) 1.9 ns; (in C1CCCCC1) 1.2 ns; (in C1COCCO1) 4.65 ns; (in CC1CCCCC1) 1.22 ns; (in CC#N) 5.2 ns and 5.13 ns; (in CC(C)=O) 4.97 ns. In addition, the fluorescence lifetime by setting is: (in CC(C)O) 5.28 ns; (in CCC(C)CC) 0.842 ns; (in CCCC(C)C) 0.406 ns; (in CCCCCC) 0.854 ns; (in CCCCCCCCO) 5.4 ns; (in CCCCCCO) 5.29 ns. Besides, the fluorescence lifetime is, setting by setting: (in CCCCO) 5.24 ns; (in CCO) 5.38 ns; (in CCOC(C)=O) 4.67 ns; (in CN(C)C=O) 5.22 ns; (in CO) 5.31 ns; (in CS(C)=O) 5 ns.
Consider `O=C(O)c1c2ccccc2nc2ccccc12`, for which the fluorescence lifetime runs as follows: (in C1CCOC1) 1.1 ns; (in C1COCCO1) 0.9 ns; (in CC#N) 0.8 ns; (in CCCCCO) 0.7 ns; (in CCCCO) 0.8 ns; (in CCCO) 0.7 ns. Also, the fluorescence lifetime reads like this: (in CCO) 0.6 ns; (in CO) 0.8 ns; (in COCCOC) 1.5 ns; (in ClC(Cl)Cl) 0.6 ns; (in ClCCl) 0.9 ns; (in OCCO) 0.8 ns.
Take `COC(=O)C(NC(=O)OC(C)(C)C)c1ccc2oc(-c3ccc(O)cc3O)nc2c1` (stereo not given): the fluorescence lifetime worked out at 0.3 ns (in CC1CCCCC1), 1.44 ns (in CC#N) and 1.33 ns (in CO).

The values above are taken from the Deep4Chem optical property database.
